Data taken from US11733243B2, “Use of acamprosate to modulate ERK1/2 activation in animal models for FXS and ASD and individuals diagnosed with FXS and ASD” (Indiana University Research and Technology Corporation, priority 2013, dated 2023).

Tested on: youths with autistic disorder
Assay: 12-week single-blind placebo lead-in trial of acamprosate in youths with autistic disorder: behavioral outcome measures
Type: in vivo, human
Protocol: One study was a 12-week single-blind, placebo-controlled trial of acamprosate in 12 youths with autistic disorder was conducted. The primary outcome measured was the Clinical Global Impression Improvement (CGI-I) scale with several additional behavioral secondary outcome measures employed. In this study, secreted amyloid precursor protein (sAPP) was measured pre- and post acamprosate treatment as blood biomarker assay Result: Twelve subjects (mean age=10.4 yrs.) entered the study and nine subjects completed a two week placebo lead-in and entered active treatment (mean final dose=1,073 mg/day). Six of nine (67%) subjects receiving acamprosate were judged treatment responders with a CGI-I score of 1 “very much improved” or 2 “much improved”. […] Among secondary outcome measures analyzed, significant acamprosate-associated improvement was noted on measures of social behavior and hyperactivity. Acamprosate use was also associated with reductions in sAPP levels.
The first project enrolled 12 youth aged 5 to 17 years with fragile X syndrome and comorbid ASD in a 10-week open-label trial of acamprosate. The second project enrolled 12 youth aged 5 to 17 years diagnosed with idiopathic ASD in a 12-week single-blind placebo lead-in study of acamprosate. In both projects, concomitant dosing of psychotropic drugs remained stable throughout study. In each project, pre- and post-acamprosate treatment plasma levels of sAPP total and sAPPα were obtained. All APP assay samples were collected, chilled, and walked within 2 hours of blood draw to the lab for analysis. Plasma sAPP total and sAPPα were determined separately in serum using the ELISA kit obtained from Immuno Biological Laboratories (IBL, Gumma, Japan). The ELISA kit is validated to measure levels of sAPPα in human samples and able to detect as low as 0.09 ng/ml of sAPPα in a typical sample, with only 0.3% cross-reactivity to sAPP. Levels of sAPP total and sAPPα in plasma were reported in nanograms per milliliter (ng/mL). Statistical analyses of pre- and post-acamprosate sAPP total and sAPPα levels were conducted using paired T-tests. Finally an exploratory post-hoc analysis of potential correlation between percent change in sAPP total or sAPPα and percent change in scores on the Aberrant Behavior Checklist Social Withdrawal/Lethargy subscale (ABC-SW) was conducted. The ABC-SW measures social impairment which is a core symptom domain of ASD. Post-hoc analysis was done with Spearman correlation calculations. All data was analyzed in IBM SPSS Version 20.
A 12-week single-blind, placebo-controlled trial of the effect of acamprosate in the treatment of 12 youths with autistic disorder aged 5 to 17 years was carried out. In order to pilot test use of acamprosate in youth with autism targeting core social impairment, was conducted. All subjects and their family members were blinded to treatment status. All subjects participated in a 2 week placebo-lead-in phase prior to 10 weeks of treatment with acamprosate. For this project, enteric coated commercially available 333 mg acamprosate pills were over-encapsulated and identical matching placebo manufactured for the project. Placebo-responders, defined by a Clinical Global Impressions Improvement scale (CGI-I) score of 1 “very much improved” or 2 “much improved” (ratings anchored to core social deficits) at week 2 were asked to exit the study. During active treatment with acamprosate, dosing was increased in 333 mg increments per week over the first six weeks of active treatment to a maximum dose of 1,332 mg/day (weight<5 60 kg) or 1,998 mg/day (weight>60 kg). During the final four weeks of active drug treatment, subjects were maintained on a stable highest tolerated (optimal) dose. The primary outcome measure was the clinician-rated CGI-I anchored to symptoms of social impairment. […]

CC(=O)NCCCS(=O)(=O)O [Acamprosate, 3-Acetamidopropane-1-sulfonic acid]
treatment responders (CGI-I score of 1 or 2) (idiopathic ASD, nine subjects receiving acamprosate, mean final dose 1,073 mg/day): 67%
mean CGI-I at last visit (idiopathic ASD, nine subjects, last observation carried forward): 2
CGI-S at endpoint (idiopathic ASD, baseline 4.22+/-0.4, p=0.013): 3.7+/−0.5
ABC Lethargy/Social Withdrawal subscale (ABC-SW) at endpoint (idiopathic ASD, baseline 14.1+/-8.5, p=0.019): 10.0+/−8.4
ABC Hyperactivity subscale at endpoint (idiopathic ASD, baseline 25.4+/-12.6, p=0.005): 16.6+/−12.4
ADHD-RS at endpoint (idiopathic ASD, baseline 29.5+/-10.4, p=0.002): 20.75+/−9.7
SRS total raw score at endpoint (idiopathic ASD, baseline 107+/-28, p=0.002): 91.4+/−30
youth judged responders to acamprosate (of those treated) (youth with idiopathic ASD): 6 of 9
